From US11524966B1 (Valo Early Discovery, Inc., priority 2017, dated 2022) come the findings set out here.

The target in the assay is T1, USP28 (His-tagged USP28-FL-mammalian) (Homo sapiens, UniProt Q96RU2).
T1 construct: Expression of USP28 (1-1077)-TEV-6*His (pTT5 vector); made in house; host or cells: Expi293f cells (pTT5 vector)
T1 sequence (Q96RU2 1-1077): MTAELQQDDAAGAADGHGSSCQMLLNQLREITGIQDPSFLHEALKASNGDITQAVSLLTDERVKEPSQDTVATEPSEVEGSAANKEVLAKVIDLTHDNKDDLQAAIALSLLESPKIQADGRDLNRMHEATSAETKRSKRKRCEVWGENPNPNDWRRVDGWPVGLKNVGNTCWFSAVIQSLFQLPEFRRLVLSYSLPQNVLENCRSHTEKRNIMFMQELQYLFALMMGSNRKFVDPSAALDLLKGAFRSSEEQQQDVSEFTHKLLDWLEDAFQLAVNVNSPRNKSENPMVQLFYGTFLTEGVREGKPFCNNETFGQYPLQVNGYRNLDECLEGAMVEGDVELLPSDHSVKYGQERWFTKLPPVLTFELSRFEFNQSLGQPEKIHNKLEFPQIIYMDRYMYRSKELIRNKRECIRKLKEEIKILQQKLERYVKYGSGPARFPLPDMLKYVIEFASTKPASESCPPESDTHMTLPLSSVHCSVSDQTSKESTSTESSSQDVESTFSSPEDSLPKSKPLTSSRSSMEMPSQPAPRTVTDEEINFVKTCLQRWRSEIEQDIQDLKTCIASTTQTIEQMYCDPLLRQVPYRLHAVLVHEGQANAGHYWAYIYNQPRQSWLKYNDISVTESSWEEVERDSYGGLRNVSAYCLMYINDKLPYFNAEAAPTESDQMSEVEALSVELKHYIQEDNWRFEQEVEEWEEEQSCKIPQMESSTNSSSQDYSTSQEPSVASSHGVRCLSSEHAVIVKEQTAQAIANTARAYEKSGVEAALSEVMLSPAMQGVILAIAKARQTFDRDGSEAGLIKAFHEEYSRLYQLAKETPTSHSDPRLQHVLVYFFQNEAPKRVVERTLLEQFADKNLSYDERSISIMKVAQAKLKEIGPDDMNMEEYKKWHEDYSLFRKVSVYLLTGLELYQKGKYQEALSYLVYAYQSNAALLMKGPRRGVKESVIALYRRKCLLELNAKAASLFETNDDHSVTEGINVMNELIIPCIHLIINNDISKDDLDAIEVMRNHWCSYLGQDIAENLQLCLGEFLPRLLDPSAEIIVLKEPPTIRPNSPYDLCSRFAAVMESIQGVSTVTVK
The experiment in a line: Ubiquitin-Rhodamine 110 Assay for USP28 Activity, Example A-1(a). The class given is biochemical. The settings on record: Ubiquitin-Rhodamine 110 assay, Example A-1(a); read-out: USP28 A-1(a) IC50 range. In outline: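 IC50 from 4-parameter logistic fit of percent inhibition versus no-enzyme and DMSO controls; compounds 25 μM to 1.3 nM, 3-fold. Ub-Rh110 cleavage (25 nM, below Km) by […] mammalian-expressed USP28-FL-His ran 45 min at room temperature, stopped with 10 mM citric acid, read ex 485/em 535.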
Consider `CO[C@H]1CN(c2ccc3c(c2)CC[C@H](NC(=O)c2sc4nc(C)cnc4c2N)C3)C[C@@H]1N` [Example 130, 7-amino-N-[(2S)-6-[(3S,4S)-3-amino-4-methoxypyrrolidin-1-yl]-1,2,3,4-tetrahydronaphthalen-2-yl]-3-methylthieno[2,3-b]pyrazine-6-carboxamide], for which the IC50 lay within 50 to 200 nM. The figure for `CO[C@H]1CN(c2ccc3c(c2)OC[C@H](NC(=O)c2sc4nc(C)sc4c2N)C3)C[C@H]1N` [Example 150] is 50 to 200 nM; for `CO[C@@H]1CCN(c2ccc3c(c2)OC[C@H](NC(=O)c2sc4nc(C)ccc4c2N)C3)C[C@H]1N` [Example 120, 3-amino-N-[(3R)-7-[(3R,4R)-3-amino-4-methoxypiperidin-1-yl]-3,4-dihydro-2H-1-benzopyran-3-yl]-6-methylthieno[2,3-b]pyridine-2-carboxamide] it is 1 to 50 nM; for `Cc1cc(C)c2c(N)c(C(=O)N[C@@H]3COc4cc(N5CCNCC5)c(F)c(F)c4C3)sc2n1` [Example 160, 3-amino-N-[(3S)-5,6-difluoro-7-(piperazin-1-yl)-3,4-dihydro-2H-1-benzopyran-3-yl]-4,6-dimethylthieno[2,3-b]pyridine-2-carboxamide] it is 1 to 50 nM. As for `CO[C@@H]1CN(c2cc(F)c3c(c2)OC[C@H](NC(=O)c2sc4nc(C)ccc4c2N)C3)C[C@@H]1N` [Example 145, 3-amino-N-[(3R)-7-[(3S,4R)-3-amino-4-methoxypyrrolidin-1-yl]-5-fluoro-3,4-dihydro-2H-1-benzopyran-3-yl]-6-methylthieno[2,3-b]pyridine-2-carboxamide], the IC50 lay within 1 to 50 nM.

Turning to `COC[C@H]1CNCCN1c1ccc2c(c1)OC[C@H](NC(=O)c1sc3nc(C)ccc3c1N)C2` [Example 156, 3-amino-N-[(3R)-7-[(21)-2-(methoxymethyl)piperazin-1-yl]-3,4-dihydro-2H-1-benzopyran-3-yl]-6-methylthieno[2,3-b]pyridine-2-carboxamide], the IC50 fell in the range of 50 to 200 nM. The result for `Cc1ccc2c(N)c(C(=O)N[C@H]3CCc4cc(N5CC6CNCC(C5)O6)c(C#N)cc4C3)sc2n1` [Example 109, 3-amino-N-[(2S)-7-cyano-6-{9-oxa-3,7-diazabicyclo[3.3.1]nonan-3-yl}-1,2,3,4-tetrahydronaphthalen-2-yl]-6-methylthieno[2,3-b]pyridine-2-carboxamide] reads 1 to 50 nM; that for `CO[C@@H]1CN(c2ccc3c(c2)CC[C@H](NC(=O)c2sc4nc(C)ccc4c2N)C3)C[C@@H]1N` [Example 143, 3-amino-N-[(2S)-6-[(3S,4R)-3-amino-4-methoxypyrrolidin-1-yl]-1,2,3,4-tetrahydronaphthalen-2-yl]-6-methylthieno[2,3-b]pyridine-2-carboxamide], 1 to 50 nM.

As to `CCn1ccc2cc(C(=O)N[C@H]3CCc4cc(N5C[C@H](OC)[C@@H](N)C5)ccc4C3)cnc21` [Example 132, N-[(2S)-6-[(3S,4S)-3-amino-4-methoxypyrrolidin-1-yl]-1,2,3,4-tetrahydronaphthalen-2-yl]-1-ethyl-1H-pyrrolo[2,3-b]pyridine-5-carboxamide], the IC50 was 200 to 2000 nM. The figure for `Cc1ccc2c(N)c(C(=O)N[C@H]3COc4cc(N5C[C@@H]6OCCN[C@@H]6C5)ccc4C3)sc2n1` [Example 154, N-[(3R)-7-[(4aR,7aS)-octahydropyrrolo[3,4-b]morpholin-6-yl]-3,4-dihydro-2H-1-benzopyran-3-yl]-3-amino-6-methylthieno[2,3-b]pyridine-2-carboxamide] is 50 to 200 nM; for `Cc1ccc2c(N)c(C(=O)N[C@H]3CCc4c(ccc(N5CC6CNCC(C5)O6)c4C#N)C3)sc2n1` [Example 102, 3-amino-N-[(2S)-5-cyano-6-{9-oxa-3,7-diazabicyclo[3.3.1]nonan-3-yl}-1,2,3,4-tetrahydronaphthalen-2-yl]-6-methylthieno[2,3-b]pyridine-2-carboxamide] it is 1 to 50 nM. The result for `Cc1ccc2c(N)c(C(=O)N[C@H]3COc4cc(N5CC6CNCC(C5)O6)c(C#N)c(F)c4C3)sc2n1` [Example 127, 3-amino-N-[(3R)-6-cyano-5-fluoro-7-{9-oxa-3,7-diazabicyclo[3.3.1]nonan-3-yl}-3,4-dihydro-2H-1-benzopyran-3-yl]-6-methylthieno[2,3-b]pyridine-2-carboxamide] reads 1 to 50 nM; that for `COC[C@H]1CN(c2ccc3c(c2)OC[C@H](NC(=O)c2sc4nc(C)ccc4c2N)C3)CCN1` [Example 157, 3-amino-N-[(3R)-7-[(3R)-3-(methoxymethyl)piperazin-1-yl]-3,4-dihydro-2H-1-benzopyran-3-yl]-6-methylthieno[2,3-b]pyridine-2-carboxamide], 1 to 50 nM.

Take `CO[C@@H]1CN(c2ccc3c(c2)OC[C@H](NC(=O)c2sc4nc(C)ccc4c2N)C3)CC[C@H]1N` [Example 129, 3-amino-N-[(3R)-7-[(3R,4R)-4-amino-3-methoxypiperidin-1-yl]-3,4-dihydro-2H-1-benzopyran-3-yl]-6-methylthieno[2,3-b]pyridine-2-carboxamide]: the IC50 fell in the range of 1 to 50 nM. The figure for `CO[C@H]1CN(c2cc(F)c3c(c2)CC[C@@H](NC(=O)c2sc4nc(C)ccc4c2N)C3)C[C@@H]1N` [Example 137, 3-amino-N-[(2R)-6-[(3S,4S)-3-amino-4-methoxypyrrolidin-1-yl]-8-fluoro-1,2,3,4-tetrahydronaphthalen-2-yl]-6-methylthieno[2,3-b]pyridine-2-carboxamide] is 50 to 200 nM; for `Cc1ccc2c(N)c(C(=O)N[C@H]3COc4cc(N5CCNCC5)cc(F)c4C3)oc2n1` [Example 169, 3-amino-N-[(3R)-5-fluoro-7-(piperazin-1-yl)-3,4-dihydro-2H-1-benzopyran-3-yl]-6-methylfuro[2,3-b]pyridine-2-carboxamide] it is 200 to 2000 nM. The figure for `Cc1ccc2c(N)c(C(=O)N[C@H]3COc4nc(N5CC6CNCC(C5)C6(F)F)ccc4C3)sc2n1` [Example 113, 3-amino-N-[(3R)-7-{9 9-difluoro-3,7-diazabicyclo[3.3.1]nonan-3-yl}-2H b,3H,4H-pyrano[2,3-b]pyridin-3-yl]-6-methylthieno[2,3-b]pyridine-2-carboxamide] is 1 to 50 nM; for `Cc1ccc2c(N)c(C(=O)N[C@H]3COc4c(ccc(N5CC6CNCC(C5)O6)c4F)C3)sc2n1` [Example 105, 3-amino-N-[(3R)-8-fluoro-7-{9-oxa-3,7-diazabicyclo[3.3.1]nonan-3-yl}-3,4-dihydro-2H-1-benzopyran-3-yl]-6-methylthieno[2,3-b]pyridine-2-carboxamide] it is 1 to 50 nM.
